Data: patent publication US20220296480A1, “TOPICAL COMPOSITIONS” (DSM IP ASSETS B.V., priority 2019, published 2022)

System: A. brasiliensis
Assay: Preservation challenge test of inoculated O/W emulsion (ISO 11930)
Format: cell-based, Aspergillus brasiliensis
Details: stored 22.5±2.5° C
Description: The evaluation of the preservation of a cosmetic formulation is based on inoculation of the formulation as outlined in table 1 with calibrated inocula (prepared from relevant strains of micro-organisms). Therefore, to each formulation 0.2 ml of calibrated inoculum is added to obtain between 1×10^2 cfu/ml and 1×10^6 cfu/ml or g of A. brasiliensis in the formulation (final concentration), which is mixed thoroughly into the formulation to ensure a homogeneous distribution of the inoculum. Then the respective containers containing the inoculated formulations are stored @22.5±2.5° C. At each specified sampling interval (initial (T0), 7 days (T7) and 28 days ([…])) 1 g of the inoculated formulation is taken and a dilution prepared to perform the enumeration of surviving micro-organisms. Then, for each time and each strain/strain mixture, the average log value is calculated which is represented in tables 2 and 3. (Procedure: see ISO 11930, chapter 5.2.-5.6.3.4. (page 3-13)) [table]

[1] = ERY 0.1 wt.-%, HG & EHG 0.9 wt.-%, time 0 days (T0)
[2] = ERY 0.1 wt.-%, HG & EHG 0.9 wt.-%, time 7 days (T7)
[3] = ERY 0.4 wt.-%, HG & EHG 0.6 wt.-%, time 0 days (T0)
[4] = ERY 0.4 wt.-%, HG & EHG 0.6 wt.-%, time 7 days (T7)

Compound | Average log [cfu/ml] [1] | Average log [cfu/ml] [2] | Average log [cfu/ml] [3] | Average log [cfu/ml] [4] | Average log [cfu/ml] (ERY 0.1 wt.-%, HG & EHG 0.9 wt.-%, time 28 days (T28)) | Average log [cfu/ml] (ERY 0.4 wt.-%, HG & EHG 0.6 wt.-%, time 28 days (T28))
O=C(CO)[C@H](O)CO (racemic) [ERY, Erythrulose] | 1.8 log [cfu/ml] | 3.5 log [cfu/ml] | 2.0 log [cfu/ml] | 2.9 log [cfu/ml] |  | 
CCCCC(CC)COCC(O)CO (stereo not shown) [EHG, Ethylhexyl glycerine] | 4.6 log [cfu/ml] | 4.2 log [cfu/ml] | 4.6 log [cfu/ml] | 4.4 log [cfu/ml] | 4.5 log [cfu/ml] | 4.6 log [cfu/ml]
